These results are taken from patent publication US20250002458A1, “SALT FORMS OF […]” (UNICYCIVE THERAPEUTICS INC., priority 2023, published 2025).

SMILES strings stand for the structures. Structures can show the parent of a compound that is named as a salt.

Series [1] is described as follows: Stability of select salts of Compound 1 at 5, 25 and 40° C. over 6 months, purity by HPLC. The format is physicochemical. The protocol:
A description of the salt and the purity as determined by HPLC are provided initially and at the 1st, 2nd, 3rd, and 6th month for each salt.
Preparation of test solution: About 50.0 mg of test sample was weighed into a 25 mL of volumetric flask and diluent (10 mL) was added. The mixture was sonicated to dissolve sample and diluted up to mark with diluent and mixed well.

Series [2] can be described thus: Photostability of iodide and nitrate salts (control, UV, visible). The series is classed as physicochemical. Conditions: for Total impurities: photostability. Here is the method:
The photostability of Compound 1 iodide salt and Compound 1 nitrate salt were tested.
The photostability of Compound 2 iodide salt and Compound 2 nitrate salt were tested.

For `C[C@H](NC(=O)OC[n+]1cccc(C(=O)NCCO[N+](=O)[O-])c1)C1CCCCC1` [Compound 1 4-Bromobesylate Salt], the Purity is 91.0 in series [1] (5° C., 1st Month); 93.1 in series [1] (5° C., 2nd Month); 89.6 in series [1] (5° C., 3rd Month); 86.6 in series [1] (5° C., 6th Month); 98.4 in series [1] (5° C., Initial); 89.0 in series [1] (25° C., 1st Month). Besides, the Purity in series [1] (25° C., 2nd Month) worked out at 84.2; in series [1] (25° C., 3rd Month), 76.8; in series [1] (25° C., 6th Month), 67.6; in series [1] (25° C., Initial), 98.4.

In the case of `C[C@H](NC(=O)OC[n+]1cccc(C(=O)NCCO[N+](=O)[O-])c1)C1CCCCC1` [Compound 1 4-Nitrobesylate Salt], the Purity in series [1] (5° C., 1st Month) is listed as 98.1; in series [1] (5° C., 2nd Month) it was 98.1; in series [1] (5° C., 3rd Month), 97.8; in series [1] (5° C., 6th Month) it was 97.9; in series [1] (5° C., Initial), 98.1; in series [1] (25° C., 1st Month) it was 97.2. In addition, the Purity in series [1] (25° C., 2nd Month) was 93.1; in series [1] (25° C., 3rd Month) it was 86.8; in series [1] (25° C., 6th Month) it was 80.3; in series [1] (25° C., Initial), 98.1.

With `C[C@H](NC(=O)OC[n+]1cccc(C(=O)NCCO[N+](=O)[O-])c1)C1CCCCC1` [Compound 1 Besylate Salt], the Purity is 88.8 in series [1] (5° C., 1st Month); 88.6 in series [1] (5° C., 2nd Month); 87.5 in series [1] (5° C., 3rd Month); 86.9 in series [1] (5° C., 6th Month); 96.6 in series [1] (5° C., Initial); 87.1 in series [1] (25° C., 1st Month). Besides, the Purity turned out to be 79.3 in series [1] (25° C., 2nd Month); 66.7 in series [1] (25° C., 3rd Month); 51.2 in series [1] (25° C., 6th Month); 96.6 in series [1] (25° C., Initial).

As for `C[C@H](NC(=O)OC[n+]1cccc(C(=O)NCCO[N+](=O)[O-])c1)C1CCCCC1` [Compound 1 Esylate Salt], the Purity in series [1] (5° C., 1st Month) stood at 92.7; in series [1] (5° C., 2nd Month), 92.3; in series [1] (5° C., 3rd Month) it was 91.5; in series [1] (5° C., 6th Month), 89.6; in series [1] (5° C., Initial), 95.4; in series [1] (25° C., 1st Month), 91.4. Besides, the Purity came to 84.4 in series [1] (25° C., 2nd Month); 73.9 in series [1] (25° C., 3rd Month); 58.7 in series [1] (25° C., 6th Month); 95.4 in series [1] (25° C., Initial).

As to `C[C@H](NC(=O)OC[n+]1cccc(C(=O)NCCO[N+](=O)[O-])c1)C1CCCCC1` [Compound 1 Perchlorate Salt], the Purity turned out to be 96.3 in series [1] (5° C., 1st Month); 93.0 in series [1] (5° C., 2nd Month); 95.7 in series [1] (5° C., 3rd Month); 94.8 in series [1] (5° C., 6th Month); 97.6 in series [1] (5° C., Initial); 95.4 in series [1] (25° C., 1st Month). In addition, the Purity in series [1] (25° C., 2nd Month) amounted to 89.4; in series [1] (25° C., 3rd Month), 84.9; in series [1] (25° C., 6th Month), 74.8; in series [1] (25° C., Initial) it was 97.6.

Take `C[C@H](NC(=O)OC[n+]1cccc(C(=O)NCCO[N+](=O)[O-])c1)C1CCCCC1` [Compound 1 Phosphate Salt]: the Purity in series [1] (5° C., 1st Month) was 95.8; in series [1] (5° C., 2nd Month), 93.8; in series [1] (5° C., 3rd Month) it was 94.6; in series [1] (5° C., 6th Month), 94.5; in series [1] (5° C., Initial), 96.5; in series [1] (25° C., 1st Month) it was 93.3. Also, the Purity in series [1] (25° C., 2nd Month) amounted to 83.7; in series [1] (25° C., 3rd Month) it was 78.2; in series [1] (25° C., 6th Month), 69.4; in series [1] (25° C., Initial) it was 96.5; in series [1] (40° C., 1st Month) it was 91.4; in series [1] (40° C., 2nd Month) it was 63.1. For the same compound, the Purity amounted to 50.9 in series [1] (40° C., 3rd Month); 50.5 in series [1] (40° C., 6th Month); 96.5 in series [1] (40° C., Initial).

For the compound `C[C@H](NC(=O)OC[n+]1cccc(C(=O)NCCO[N+](=O)[O-])c1)C1CCCCC1` [Compound 1 Sulphate Salt], the Purity in series [1] (5° C., 1st Month) is on record as 90.7; in series [1] (5° C., 2nd Month), 87.9; in series [1] (5° C., 3rd Month), 91.1; in series [1] (5° C., 6th Month), 90.9; in series [1] (5° C., Initial), 94.7; in series [1] (25° C., 1st Month), 90.0. Besides, the Purity in series [1] (25° C., 2nd Month) is reported as 56.9; in series [1] (25° C., 3rd Month) it was 33.7; in series [1] (25° C., 6th Month), 23.5; in series [1] (25° C., Initial), 94.7; in series [1] (40° C., 1st Month), 75.6; in series [1] (40° C., 2nd Month), 8.3. In addition, the Purity in series [1] (40° C., 3rd Month) is given as 0.9; in series [1] (40° C., 6th Month), 1.5; in series [1] (40° C., Initial) it was 94.7.

Turning to `C[C@H](NC(=O)OC[n+]1cccc(C(=O)NCCO[N+](=O)[O-])c1)C1CCCCC1` [Compound 1 Triflate Salt], the Purity in series [1] (5° C., 1st Month) turned out to be 95.0; in series [1] (5° C., 2nd Month), 95.0; in series [1] (5° C., 3rd Month) it was 94.8; in series [1] (5° C., 6th Month), 96.1; in series [1] (5° C., Initial), 96.6; in series [1] (25° C., 1st Month), 94.4. For the same compound, the Purity is listed as 91.1 in series [1] (25° C., 2nd Month); 85.8 in series [1] (25° C., 3rd Month); 78.5 in series [1] (25° C., 6th Month); 96.6 in series [1] (25° C., Initial).

`C[C@H](NC(=O)OC[n+]1cccc(C(=O)NCCO[N+](=O)[O-])c1)C1CCCCC1` [Compound 1 Trifluoroacetate Salt]: the Purity is 97.2 in series [1] (5° C., 1st Month); 96.6 in series [1] (5° C., 2nd Month); 97.0 in series [1] (5° C., 3rd Month); 97.2 in series [1] (5° C., 6th Month); 98.6 in series [1] (5° C., Initial); 96.5 in series [1] (25° C., 1st Month). In addition, the Purity in series [1] (25° C., 2nd Month) is given as 94.6; in series [1] (25° C., 3rd Month) it was 92.2; in series [1] (25° C., 6th Month), 85.9; in series [1] (25° C., Initial), 98.6.

For the compound `C[C@H](NC(=O)OC[n+]1cccc(C(=O)NCCO[N+](=O)[O-])c1)C1CCCCC1` [Compound 1 iodide salt], the Total impurities is given as 0.27 in series [2] (UV), 0.60 in series [2] (Visible) and 0.07 in series [2] (control sample).

`C[C@H](NC(=O)OC[n+]1cccc(C(=O)NCCO[N+](=O)[O-])c1)C1CCCCC1` [Compound 1 nitrate salt]: in series [2] (exposed to both UV and visible light), the “Total impurities compared with the iodide salt” value is recorded as “less than the impurities in Compound 1 iodide salt”. In addition, the figures for the Total impurities in series [2] (UV), in series [2] (Visible) and in series [2] (control sample) were 0.21, 0.16 and 0.06, respectively.
